Results published in the CheMixHub ionic liquid set.

Test: xn = mol fraction of the nth substance listed

CN1CCCN(C)C1=O + CCCCCCCCn1cc[n+](C)c1.[Cl-]
viscosity [mPa·s], 100 kPa
Details	288.15 K	293.15 K	298.15 K	303.15 K	308.15 K	313.15 K	318.15 K	323.15 K	328.15 K	333.15 K
x2 = 0	4	3.51	3.11	2.78	2.5	2.266	2.064	1.891	1.737	1.595
x2 = 0.0999	15.3	12.48	9.9	8.46	7.27	6.32	5.53	4.88	4.35	3.9
x2 = 0.1998	52.2	40.6	31.8	25.6	21.04	17.5	14.79	12.66	10.9	9.46
x2 = 0.2997	176	128.8	95.4	78.6	61.1	48.4	39	31.9	26.4	21.86
x2 = 0.4004	412	287	224	163.5	122	93.5	72.9	57.5	46.8	38.3
x2 = 0.4993	1016	673	463	326	248	192	144.4	107.7	84.2	67.5
x2 = 0.5981	2302	1467	972	661	462	340	250	186	143.4	110.7
x2 = 0.6984	–	–	1797	1194	815	575	412	311	233	178
x2 = 0.7997	–	–	–	1924	1289	890	632	458	340	257

CCCCCCCCCCCCCC[P+](CCCCCC)(CCCCCC)CCCCCC.c1nnn[n-]1 + CCCCCC[n+]1ccn(C)c1.O=S(=O)([N-]S(=O)(=O)C(F)(F)F)C(F)(F)F
100 kPa
Details	viscosity [mPa·s]
283.15 K, x2 = 0.102	1711
283.15 K, x2 = 0.299	1361
283.15 K, x2 = 0.6	662
283.15 K, x2 = 0.8	342
288.15 K, x2 = 0.102	1155
288.15 K, x2 = 0.201	1055
288.15 K, x2 = 0.8	247
288.15 K, x2 = 0.9	158
298.15 K, x2 = 0.102	567
298.15 K, x2 = 0.6	245
303.15 K, x2 = 0.201	382
303.15 K, x2 = 0.701	145
308.15 K, x2 = 0.201	286
308.15 K, x2 = 0.299	253
308.15 K, x2 = 0.8	86
308.15 K, x2 = 0.9	59
313.15 K, x2 = 0.6	112
318.15 K, x2 = 0.349	141

CCCCCC[n+]1ccn(C)c1.F[B-](F)(F)F + CCCCCC[n+]1ccn(C)c1.[Cl-]
101 kPa, x2 = 0
Details	electrical conductivity [S/m]	viscosity [mPa·s]
303 K	0.16	–
303.15 K	–	189
308 K	0.205	–
308.15 K	–	145
313 K	0.259	–
313.15 K	–	114
318 K	0.322	–
318.15 K	–	90
323 K	0.397	–
323.15 K	–	73
328 K	0.481	–
328.15 K	–	60
333 K	0.576	–
333.15 K	–	49

CN1CCCN(C)C1=O + CCCCCC[n+]1ccn(C)c1.[Cl-]
viscosity [mPa·s], 100 kPa
Details	288.15 K	293.15 K	298.15 K	303.15 K	308.15 K	313.15 K	318.15 K	323.15 K	328.15 K	333.15 K
x2 = 0	4	3.51	3.11	2.78	2.5	2.266	2.064	1.891	1.737	1.595
x2 = 0.1011	9.78	8.21	6.99	6.01	5.22	4.59	4.06	3.63	3.25	2.94
x2 = 0.1987	29.2	23.3	18.82	15.64	13.14	10.05	8.62	7.47	6.53	5.75
x2 = 0.3083	77.7	59.1	45.8	36.3	29.2	23.9	19.81	16.38	13.92	12.29
x2 = 0.3981	184	133.6	99.3	75.6	63.8	50.5	40.6	33	27.5	23.11
x2 = 0.4957	412	283	215	157.4	117.8	90.1	70.2	55.6	44.6	36.3
x2 = 0.6008	897	600	418	296	215	158	121	93.6	73.9	58.6
x2 = 0.6983	2019	1294	856	583	408	294	215	163.7	124.9	96.8
x2 = 0.7961	–	2416	1565	1044	708	496	357	261	196	148.4

CCCCCC[n+]1ccn(C)c1.F[B-](F)(F)F + CCCCCO
101.33 kPa, x2 = 0.865
Details	viscosity [mPa·s]
315 K	5.31
315.35 K	4.93
315.39 K	4.9
315.5 K	4.85
315.63 K	4.78
315.79 K	4.73
315.84 K	4.71
315.86 K	4.71
318.02 K	4.19

CC(=O)[O-].CCCC[N+](CCCC)(CCCC)CCCC + CCCCN + O
303.15 K, 100 kPa
Details	viscosity [mPa·s]
x2 = 0, x3 = 0.0291	680
x2 = 0.0965, x3 = 0.0347	390
x2 = 0.194, x3 = 0.0301	188
x2 = 0.3198, x3 = 0.031	78
x2 = 0.4873, x3 = 0.0253	28
x2 = 0.6575, x3 = 0.0186	16
x2 = 0.7882, x3 = 0.0148	11
x2 = 0.8893, x3 = 0.0119	9

CCC[NH3+].O=[N+]([O-])[O-] + CCCC[NH3+].O=[N+]([O-])[O-]
101 kPa, frequency 0.00293 MHz, x1 = 0.5
Details	electrical conductivity [S/m]
293.15 K	0.496
313.15 K	1.02
323.15 K	1.36

101 kPa, x1 = 0.5
Details	viscosity [mPa·s]
293.15 K	100.4
313.15 K	45.4
323.15 K	32.6
328.15 K	28.1
343.15 K	18.8

CCC(=O)O.CCC(=O)[O-].CC[NH+](CC)CCO + CCCC[n+]1ccn(C)c1.COP(=O)([O-])OC
101 kPa
Details	viscosity [mPa·s]
278.15 K, x1 = 0.08	1956
283.15 K, x1 = 0.2364	446
283.15 K, x1 = 0.4953	205.6
283.15 K, x1 = 0.6252	170.9
283.15 K, x1 = 0.7416	147.7
288.15 K, x1 = 0.6252	123.8
293.15 K, x1 = 0.3281	154
293.15 K, x1 = 0.8667	70.8
298.15 K, x1 = 0.7416	60.3
298.15 K, x1 = 1	66.2
303.15 K, x1 = 0.08	280.9
303.15 K, x1 = 0.2364	123.4
303.15 K, x1 = 0.4183	70.2
303.15 K, x1 = 0.8667	41.6
308.15 K, x1 = 0.4183	54.9
308.15 K, x1 = 0.8667	32.8
313.15 K, x1 = 0.3281	53.8
313.15 K, x1 = 0.4953	39.2
318.15 K, x1 = 0.6252	27.36
323.15 K, x1 = 0.2364	47.3
323.15 K, x1 = 0.4953	25.98
328.15 K, x1 = 0.2364	38.66
328.15 K, x1 = 0.7416	16.29
328.15 K, x1 = 0.8667	14.65
333.15 K, x1 = 0.4953	18.11
333.15 K, x1 = 0.8667	12.33
333.15 K, x1 = 1	14.08
338.15 K, x1 = 0.08	48.11
338.15 K, x1 = 0.2364	26.76
338.15 K, x1 = 0.6252	13.4
338.15 K, x1 = 0.7416	11.64
343.15 K, x1 = 0.4953	13.09
348.15 K, x1 = 0.1549	25.27
348.15 K, x1 = 0.4183	12.61
348.15 K, x1 = 0.6252	9.95
348.15 K, x1 = 0.8667	7.75
353.15 K, x1 = 0.1549	21.56
353.15 K, x1 = 0.4183	10.98
358.15 K, x1 = 0.4183	9.63
358.15 K, x1 = 0.4953	8.59
358.15 K, x1 = 0.6252	7.61
363.15 K, x1 = 0.7416	5.82
363.15 K, x1 = 1	5.7
368.15 K, x1 = 0.08	17.66
368.15 K, x1 = 0.1549	14.09
368.15 K, x1 = 0.7416	5.16
373.15 K, x1 = 0.7416	4.6
373.15 K, x1 = 1	4.41

CC(C)=O + CCCC[n+]1ccn(C)c1.F[B-](F)(F)F
Details	electrical conductivity, 296.15 K [S/m]	viscosity, 303.15 K [mPa·s]	viscosity, 313.15 K [mPa·s]	viscosity, 323.15 K [mPa·s]
100 kPa, x2 = 0	–	0.303	0.276	0.255
101 kPa, x1 = 1	0.05	–	–	–

CCCCCC[n+]1ccn(C)c1.F[B-](F)(F)F + CCCC[n+]1ccn(C)c1.F[B-](F)(F)F
101 kPa
Details	viscosity [mPa·s]
298.15 K, x2 = 0.103	195.1
298.15 K, x2 = 0.8917	115.3
299.15 K, x2 = 0.103	184.2
299.15 K, x2 = 0.809	115.7
301.15 K, x2 = 0.809	104.4
301.15 K, x2 = 0.8917	98.6
302.15 K, x2 = 0.3602	132.9
302.15 K, x2 = 0.555	115.9
302.15 K, x2 = 0.8917	93.9
303.15 K, x2 = 0.3602	126.2
303.15 K, x2 = 0.555	110
303.15 K, x2 = 0.809	94.5
303.15 K, x2 = 0.8917	89.3
304.15 K, x2 = 0.103	139.2
304.15 K, x2 = 0.5047	110
305.15 K, x2 = 0.3602	113.5
305.15 K, x2 = 0.4383	107.7
305.15 K, x2 = 0.598	98.5
305.15 K, x2 = 0.809	85.6
307.15 K, x2 = 0.054	123.9
308.15 K, x2 = 0.103	113
308.15 K, x2 = 0.3602	97.3
308.15 K, x2 = 0.4383	92.8

COCCOCCO + CCCC[n+]1ccn(C)c1.F[B-](F)(F)F
100 kPa
Details	viscosity [mPa·s]
283.15 K, x2 = 0.05366	7.07
283.15 K, x2 = 0.09486	8.3
283.15 K, x2 = 0.1969	12.44
283.15 K, x2 = 0.2893	17.54
283.15 K, x2 = 0.3913	25.12
283.15 K, x2 = 0.4909	35.39
283.15 K, x2 = 0.5826	48.46
283.15 K, x2 = 0.6949	71.9
283.15 K, x2 = 0.7838	100
283.15 K, x2 = 0.8792	145
283.15 K, x2 = 0.9489	192.9
293.15 K, x2 = 0.04883	4.923
293.15 K, x2 = 0.09356	5.88
293.15 K, x2 = 0.192	8.36
293.15 K, x2 = 0.292	11.92
293.15 K, x2 = 0.3812	15.94
293.15 K, x2 = 0.4892	22.53
293.15 K, x2 = 0.5841	30.52
293.15 K, x2 = 0.6808	41.95
293.15 K, x2 = 0.7796	58.1
293.15 K, x2 = 0.8752	81.9
293.15 K, x2 = 0.9414	109.4
303.15 K, x2 = 0.05005	3.91
303.15 K, x2 = 0.1374	4.662
303.15 K, x2 = 0.2026	6.323
303.15 K, x2 = 0.2965	8.36
303.15 K, x2 = 0.3975	11.28
303.15 K, x2 = 0.491	15.38
303.15 K, x2 = 0.5868	20.14
303.15 K, x2 = 0.6897	27.27
303.15 K, x2 = 0.7826	36.34
303.15 K, x2 = 0.8807	50.95
303.15 K, x2 = 0.9393	63.1
313.15 K, x2 = 0.04527	2.966
313.15 K, x2 = 0.09794	3.523
313.15 K, x2 = 0.2017	4.838
313.15 K, x2 = 0.2869	6.194
313.15 K, x2 = 0.3858	8.06
313.15 K, x2 = 0.4987	10.87
313.15 K, x2 = 0.5953	13.94
313.15 K, x2 = 0.6918	18.09
313.15 K, x2 = 0.7818	23.11
313.15 K, x2 = 0.8804	29.78
313.15 K, x2 = 0.9409	34.99

c1ccncc1 + CCCC[n+]1ccn(C)c1.F[B-](F)(F)F
298.15 K, 101 kPa
Details	electrical conductivity [S/m]	viscosity [mPa·s]
x1 = 0.1059	0.264	82
x1 = 0.2	0.347	58
x1 = 0.3028	0.456	39.2
x1 = 0.3969	0.601	26.4
x1 = 0.5033	0.792	16.4
x1 = 0.6063	1.01	9.9
x1 = 0.6873	1.17	6.39
x1 = 0.807	1.3	3.2
